Three molecules from BindingDB's records for doi:10.1021/jm061268p (University of Arizona, 2007) can be followed below.

This assay addresses T1, Cholecystokinin receptor type A (Homo sapiens, UniProt P32238).
T1 sequence (P32238 whole entry): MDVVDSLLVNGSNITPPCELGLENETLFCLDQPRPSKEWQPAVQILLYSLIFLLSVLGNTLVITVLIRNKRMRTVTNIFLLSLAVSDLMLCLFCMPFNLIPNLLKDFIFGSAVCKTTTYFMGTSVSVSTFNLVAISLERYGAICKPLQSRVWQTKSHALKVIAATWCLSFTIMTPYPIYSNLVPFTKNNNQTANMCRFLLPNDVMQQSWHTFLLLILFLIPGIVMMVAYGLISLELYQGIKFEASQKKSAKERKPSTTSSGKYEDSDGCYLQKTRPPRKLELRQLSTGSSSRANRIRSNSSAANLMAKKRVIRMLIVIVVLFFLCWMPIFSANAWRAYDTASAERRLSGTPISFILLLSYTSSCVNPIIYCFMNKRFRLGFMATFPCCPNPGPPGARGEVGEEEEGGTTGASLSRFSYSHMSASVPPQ
The experiment in a line: Displacement of [125I]CCK8-SO3 from human CCK1 receptor expressed in HEK293 cells. In general terms: In a radioligand displacement assay an active substance lowers the binding of a labelled ligand.

In general, IC50 refers to the midpoint of a concentration-inhibition curve. Read a low IC50 as greater potency. Molecule `CCCC[C@@H](NC(=O)[C@H](Cc1c[nH]c2ccccc12)NC(=O)OC(C)(C)C)C(=O)N[C@H](CC(=O)O)C(=O)N[C@H](Cc1ccccc1)C(=O)NNC(=O)[C@H](Cc1ccccc1)NC(=O)CNC(=O)[C@@H](C)NC(=O)[C@@H](N)Cc1ccc(O)cc1` [H-Tyr-D-Ala-Gly-Phe-NH-NH-D-Phe-D-Asp-D-Nle-Trp-Boc] came in with an IC50 of 5.05 nM.
Next, `CCCC[C@@H](NC(=O)[C@@H](CC(=O)O)NC(=O)[C@H](N)Cc1ccccc1)C(=O)N[C@@H](Cc1c[nH]c2ccccc12)C(=O)NNC(=O)[C@H](Cc1ccccc1)NC(=O)CNC(=O)[C@@H](C)NC(=O)[C@@H](N)Cc1ccc(O)cc1` [H-Tyr-D-Ala-Gly-Phe-NH-NH-Trp-D-Nle-D-Asp-D-Phe-H]: 5.72 nM; `CCCC[C@H](NC(=O)[C@H](CC(=O)O)NC(=O)[C@@H](N)Cc1ccccc1)C(=O)N[C@H](Cc1c[nH]c2ccccc12)C(=O)NNC(=O)[C@H](Cc1ccccc1)NC(=O)CNC(=O)[C@@H](C)NC(=O)[C@@H](N)Cc1ccc(O)cc1` [H-Tyr-D-Ala-Gly-Phe-NH-NH-D-Trp-Nle-Asp-Phe-H]: 5.15 nM.
